Laboratory results: patent US9950091B2, “Composition and method for stopping hemorrhage, infection, and accelerating healing in various types of wound or burns” (priority 2015, dated 2018)

System: human blood (platelet/fibrin clot)
Test: Thrombelastography (TEG) clot kinetics in whole blood
Type: cell-based
Conditions: Table 4, mean ± SD, n=4, control = normal blood, 'Heparin +' lines in presence of heparin
Excerpt: Thrombelastography techniques, which are commonly used in the clinical laboratory for monitoring coagulation functions, were utilized. Siliconized Vacutainer tubes (Becton Dickinson, Rutherford, N.J.) were used to collect whole blood. To maintain a ratio of citrate to whole blood of 1:9 (v/v), the tubes contained 3.2% trisodium citrate. Blood samples were placed on a slow speed rocker until TEG analysis.
Whole Blood Coagulation Analyzer, Model 5000 Thrombelastograph, Hemoscope Corporation, Skokie, Ill., was used. TEG is based on the measurement of the physical viscoelastic characteristics of blood clots. An oscillating plastic cylindrical cuvette (“cup”) and a coaxially suspended stationary piston (“pin”) with a […] clearance between the surfaces are used to monitor clot formation at 37° C. Every 4.5 seconds, with a 1-second mid cycle stationary period, the cup oscillates in either direction, resulting in a frequency of 0.1 Hz. […]
Different hydrogel polycatioinic matrix micro-composites were evaluated. […]
A standard global coagulation assay, namely Thrombelastography, uses a total of 5 ml blood from human volunteers. Additionally, the efficiency of the optimal hydrogel compositions that have the shortest Time to Clotting (R) and the strongest clot strength (MA) were evaluated in stopping severe bleeding in a hemorrhage simulation model system. […]

NC[C@H]1CC[C@H](C(=O)O)CC1 [tranexamic acid (TXA), tranexamic acid]
MA-Clot Strength: 57 ± 4 mm
R - Time to Clot initiation: 9.0 ± 4 min
